Assay results as given in article PMC8859858 (Nanoscale, 2019).

Target: AdhD (AdhD-SP) (Pyrococcus furiosus, UniProt Q8TZM9)
Test: NADH disappearance at […] nm, Michaelis-Menten fit
Type: biochemical
Conditions: free enzyme; NADH (A340 ~1.8); 100 mM sodium phosphate pH 6.2; 50 °C

## CC(=O)C(C)O (stereo not shown) [acetoin]
  KM: The dependence of the reaction rate on acetoin followed Michaelis-Menten kinetics.
